What all share (design): key: 0 = no effect, 10 = maximum effect; letter = response symbol
One assay concerns bush bean. Kind of assay: Test A post-emergence. It is filed as in vivo, bush beans. Conditions: 0.4 kg/ha.
Assay [1] relates to morningglory. Nature of the assay: Test A post-emergence. It is filed as in vivo, Ipomoea spp. Conditions: 0.4 kg/ha. In short, it runs like this:
(§1)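 Seeds and tubers were treated preemergence in a growth medium with compound in a nonphytotoxic solvent, against untreated controls; emerged plants such as two-leaf barnyardgrass and five-leaf cotton were sprayed postemergence, against solvent-sprayed controls. After sixteen days in a greenhouse, response was rated visually from 0 to 10.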

Assay [2] has as its system cocklebur. Nature of the assay: Test A post-emergence. It is filed as in vivo, Xanthium spp. Conditions: 0.4 kg/ha. A digest of the protocol:
as §1

Assay [3] deals with cassia. Nature of the assay: Test A post-emergence. Conditions: 0.4 kg/ha. It is filed as in vivo, Cassia tora. A digest of the protocol:
as §1

The subject of a further assay is nutsedge. Kind of assay: Test A post-emergence. The class given is in vivo, Cyperus rotundus. Conditions: 0.4 kg/ha. In short, it runs like this:
as §1

For assay [4], the system named is corn. Kind of assay: Test A post-emergence. Conditions: 0.4 kg/ha. The class given is in vivo. In short, it runs like this:
as §1

In a further assay the test system is cotton. Nature of the assay: Test A post-emergence. The class given is in vivo. Conditions: 0.4 kg/ha. In short, it runs like this:
as §1

The test system of assay [5] is wheat. Nature of the assay: Test A post-emergence. The class given is in vivo. Conditions: 0.4 kg/ha. In short, it runs like this:
as §1

The test system of assay [6] is morningglory. Nature of the assay: Test A pre-emergence. It is filed as in vivo, Ipomoea spp. A digest of the protocol: as §1
Assay [7] has as its system cocklebur. Nature of the assay: Test A pre-emergence. The class given is in vivo, Xanthium spp. A digest of the protocol:
as §1

For assay [8], the system named is wild oats. Nature of the assay: Test A pre-emergence. It is filed as in vivo, Avena fatua. From the text: (§2) The activity of these compounds was discovered in a number of greenhouse and field tests. The ratings are based on a numerical scale extending from 0=no effect, to 10=maximum effect. The accompanying descriptive symbols have the following meanings:
(§3) Seeds of crabgrass (Digitaria spp.), barnyardgrass (Echinochloa crusgalli), wild oats (Avena fatua), cassia (Cassia tora), morningglory (Ipomoea spp.), cocklebur (Xanthium spp.), sorghum, corn, soybean, rice, wheat and nutsedge tubers (Cyperus rotundus) were planted in a growth medium and treated preemergence with a nonphytotoxic solvent solution of the compounds of Table XII. Other batches of seeds and tubers for all of the foregoing weed and crop plants were planted at the same time as controls. The control plantings were untreated; i.e., neither any compound nor any solvent was applied. At the same time, cotton having five leaves (including cotyledonary ones), bush beans with the third trifoliate leaf expanding, crabgrass with two leaves, barnyardgrass with two leaves, wild oats with two leaves, cassia with three leaves (including cotyledonary ones), morningglory with four leaves (including the cotyledonary ones), cocklebur with four leaves (including the cotyledonary ones), sorghum with four leaves, corn with four leaves, soybean with two cotyledonary leaves, rice with three leaves, wheat with one leaf, and nutsedge with three-five leaves were sprayed with a nonphytotoxic solvent solution of the compounds of Table XII. Other groups of all the same weed and crop plants were sprayed with the same nonphytotoxic solvent so as to provide control plants. Preemergence and postemergence treated plants and controls were maintained in a greenhouse for sixteen days, then all treated plants were compared with their respective controls and rated visually for response to treatment.

The test system of assay [9] is corn. Kind of assay: Test A pre-emergence. The class given is in vivo. In short, it runs like this:
as §1

Another assay deals with soybean. Kind of assay: Test A pre-emergence. It is filed as in vivo. In short, it runs like this:
as §1

Assay [10] has as its system wheat. Nature of the assay: Test A pre-emergence. The class given is in vivo. In short, it runs like this:
as §1

Assay [11] relates to wild oats. Nature of the assay: Test A post-emergence. It is filed as in vivo, Avena fatua. Conditions: 0.4 kg/ha. A digest of the protocol: as §1
The test system of assay [12] is cassia. Nature of the assay: Test A pre-emergence. It is filed as in vivo, Cassia tora. In short, it runs like this:
as §1

For another assay, the system named is crabgrass. Kind of assay: Test A pre-emergence. It is filed as in vivo, Digitaria spp.
From the text: as §2, §3

A further assay has as its system barnyardgrass. Kind of assay: Test A pre-emergence. The class given is in vivo, Echinochloa crusgalli. In short, it runs like this: as §1
The next assay deals with sorghum. Nature of the assay: Test A pre-emergence. It is filed as in vivo. A digest of the protocol:
as §1

Molecules are shown by their SMILES.

With `COc1nc(C)nc(NC(=O)NS(=O)(=O)c2ccccc2C(=O)OC(C)C)n1` [drawing 425], the response rating in the assay with bush bean came out at 9C; in the assay on morningglory [1] it was 10C; with cocklebur [2], 10C; in the assay with cassia [3], 10C; in the assay on nutsedge it was 10C; in the assay on corn [4], 10C. In addition, the response rating in the assay with cotton was 9C; in the assay on wheat [5], 2C.
Consider `COc1nc(C)nc(NC(=O)NS(=O)(=O)c2ccccc2C(=O)OC(C)C)n1` [drawing 492], for which the response rating amounted to 9G in the assay on morningglory [6] (0.4 kg/ha); 9G in the assay with cocklebur [7] (0.4 kg/ha); 9G with wild oats [8] (0.4 kg/ha); 9G in the assay on corn [9] (0.4 kg/ha); 9H with soybean (0.4 kg/ha); 5G in the assay with wheat [10] (0.4 kg/ha).
Consider `COc1nc(C)nc(NC(=O)NS(=O)(=O)c2ccccc2C(=O)OCCCl)n1` [drawing 426], for which the response rating in the assay with bush bean was found to be 9C; in the assay with morningglory [1] it was 10C; with cocklebur [2] it was 10C; in the assay on cassia [3] it was 9C; in the assay on nutsedge it was 9C; in the assay on wild oats [11], 4G. Also, the response rating came to 9C with corn [4], 9C with cotton and 1C in the assay on wheat [5].
As for `COC(=O)c1ccccc1S(=O)(=O)NC(=O)Nc1nc(OC)cc(OC)n1` [drawing 481], the response rating in the assay with morningglory [6] (0.4 kg/ha) was determined as 9G; in the assay on cocklebur [7] (0.4 kg/ha) it was 9G; with cassia [12] (0.4 kg/ha), 9G; in the assay on crabgrass (0.4 kg/ha), 9H; with barnyardgrass (0.4 kg/ha), 9H; with wild oats [8] (0.4 kg/ha) it was 9H. The response rating in the assay with corn [9] (0.4 kg/ha), in the assay on sorghum (0.4 kg/ha) and in the assay with wheat [10] (0.4 kg/ha) was 9H each time.
As to `CCCCOC(=O)c1ccccc1S(=O)(=O)NC(=O)Nc1nc(C)cc(OC)n1` [drawing 507], the response rating with morningglory [6] (0.4 kg/ha) was 9G; with cocklebur [7] (0.4 kg/ha), 9G; in the assay on cocklebur [7] (2 kg/ha) it was 9G; in the assay with cassia [12] (0.4 kg/ha), 9G; in the assay on crabgrass (0.4 kg/ha), 7G; with barnyardgrass (0.4 kg/ha), 9H. Also, the response rating is on record as 9H with barnyardgrass (2 kg/ha); 9G with corn [9] (0.4 kg/ha); 9G in the assay with corn [9] (2 kg/ha); 9H in the assay on sorghum (0.4 kg/ha); 9H in the assay with sorghum (2 kg/ha); 9H in the assay with soybean (0.4 kg/ha). The response rating in the assay with soybean (2 kg/ha), in the assay on wheat [10] (0.4 kg/ha) and in the assay with wheat [10] (2 kg/ha) was 9H in each case.
As to `COc1cc(C)nc(NC(=O)NS(=O)(=O)c2ccccc2C(=O)NC(C)C)n1` [drawing 530], the response rating in the assay with morningglory [6] (0.4 kg/ha) amounted to 9G; in the assay with cocklebur [7] (0.4 kg/ha) it was 8G; in the assay with cassia [12] (0.4 kg/ha) it was 9G; in the assay on crabgrass (0.4 kg/ha) it was 9H; in the assay on barnyardgrass (0.4 kg/ha), 9H; in the assay with corn [9] (0.4 kg/ha) it was 9H. Besides, the response rating in the assay with sorghum (0.4 kg/ha), with soybean (0.4 kg/ha) and with wheat [10] (0.4 kg/ha) was 9H in each case.
Take `COc1nc(C)nc(NC(=O)NS(=O)(=O)c2ccccc2C(=O)OC2CCCCC2C)n1` (stereo not drawn): the response rating with bush bean is 9C; in the assay with morningglory [1], 10C; in the assay on cocklebur [2], 9C; in the assay with cassia [3] it was 9C; in the assay with corn [4], 10C; in the assay with cotton, 9C.
With `COC(=O)c1ccccc1S(=O)(=O)NC(=O)Nc1ncccn1` [drawing 485], the response rating in the assay on cocklebur [7] (2 kg/ha) stood at 9G; in the assay with cassia [12] (2 kg/ha), 9G; in the assay on wild oats [8] (2 kg/ha) it was 8G; in the assay with corn [9] (2 kg/ha), 9G; in the assay on sorghum (2 kg/ha) it was 9G; in the assay with wheat [10] (2 kg/ha), 8G.
As for `CCCCOC(=O)c1ccccc1S(=O)(=O)NC(=O)Nc1nc(OC)cc(OC)n1` [drawing 506], the response rating is recorded as 9G with morningglory [6] (0.4 kg/ha); 9G in the assay with cocklebur [7] (0.4 kg/ha); 9G in the assay with cocklebur [7] (2 kg/ha); 9G in the assay on cassia [12] (0.4 kg/ha); 9C in the assay on cassia [12] (2 kg/ha); 8G in the assay on crabgrass (0.4 kg/ha). Further, the response rating was found to be 7G in the assay with crabgrass (2 kg/ha); 9H in the assay with barnyardgrass (0.4 kg/ha); 9H in the assay with barnyardgrass (2 kg/ha); 7G with wild oats [8] (0.4 kg/ha); 8G in the assay with wild oats [8] (2 kg/ha); 9G in the assay with corn [9] (2 kg/ha). Also, the response rating worked out at 9H in the assay with sorghum (2 kg/ha); 7H with soybean (0.4 kg/ha); 9H in the assay on soybean (2 kg/ha); 9G with wheat [10] (0.4 kg/ha); 9G in the assay on wheat [10] (2 kg/ha).
Regarding `COC(=O)c1cc(Cl)ccc1S(=O)(=O)NC(=O)Nc1nc(OC)cc(OC)n1` [drawing 433], the response rating turned out to be 9C in the assay with bush bean; 10C in the assay with morningglory [1]; 10C with cocklebur [2]; 9C in the assay on cassia [3]; 10C with nutsedge; 9G in the assay with wild oats [11]. Further, the response rating in the assay with corn [4] came out at 6H; in the assay with cotton, 9C.
In the case of `COC(=O)c1ccccc1S(=O)(=O)NC(=O)Nc1nnc(C)c(C)n1` [drawing 484], the response rating with morningglory [6] (2 kg/ha) was 9C; in the assay with cocklebur [7] (2 kg/ha), 9G; in the assay on cassia [12] (2 kg/ha) it was 9C; in the assay on barnyardgrass (2 kg/ha) it was 9H; with wild oats [8] (2 kg/ha), 9H; in the assay on corn [9] (2 kg/ha), 9G. Besides, the response rating in the assay with sorghum (2 kg/ha), in the assay with soybean (2 kg/ha) and with wheat [10] (2 kg/ha) was 9H each time.
Consider `COC(=O)c1ccccc1S(=O)(=O)NC(=O)Nc1nc(C)cc(OC)n1` [drawing 480], for which the response rating with morningglory [6] (0.4 kg/ha) was 9G; in the assay on cocklebur [7] (0.4 kg/ha), 9G; with cassia [12] (0.4 kg/ha) it was 9G; with crabgrass (0.4 kg/ha) it was 9H; in the assay on barnyardgrass (0.4 kg/ha), 9H; in the assay with wild oats [8] (0.4 kg/ha), 9H. The response rating in the assay with corn [9] (0.4 kg/ha) amounted to 10H; with sorghum (0.4 kg/ha) it was 9H; in the assay with soybean (0.4 kg/ha) it was 9H; in the assay with wheat [10] (0.4 kg/ha), 9H.
As for `COc1nc(C)nc(NC(=O)NS(=O)(=O)c2ccccc2C(=O)OC(C)Cc2ccccc2)n1` (stereo not drawn) [drawing 524], the response rating in the assay with morningglory [6] (0.4 kg/ha) came out at 9G; in the assay with cocklebur [7] (0.4 kg/ha), 9G; in the assay with barnyardgrass (0.4 kg/ha), 9H; in the assay on wild oats [8] (0.4 kg/ha), 9H; in the assay on corn [9] (0.4 kg/ha), 9H; in the assay with sorghum (0.4 kg/ha), 9H. The response rating in the assay with soybean (0.4 kg/ha) and in the assay on wheat [10] (0.4 kg/ha) was 9H in each case.
As to `COC(=O)c1cc(Cl)ccc1S(=O)(=O)NC(=O)Nc1nc(OC)cc(OC)n1` [drawing 500], the response rating in the assay with morningglory [6] (0.4 kg/ha) amounted to 9G; in the assay on cocklebur [7] (0.4 kg/ha), 9G; in the assay with crabgrass (0.4 kg/ha), 5G; with barnyardgrass (0.4 kg/ha), 9H; with wild oats [8] (0.4 kg/ha), 9G; in the assay with corn [9] (0.4 kg/ha), 9H. The values for the response rating with sorghum (0.4 kg/ha), in the assay on soybean (0.4 kg/ha) and in the assay with wheat [10] (0.4 kg/ha) were 9H, 9H and 3G, respectively.

These data come from patent US4383113A, “Agricultural sulfonamides” (E. I. Du Pont de Nemours and Company, priority 1981, dated 1983).
